Patent publication US10350271B2, “Lipidated peptides for lowering blood glucose” (USTAV ORGANICKE CHEMIE A BIOCHEMIE AKADEMIE VED CR, V.V.I., priority 2014, dated 2019)
Square brackets hold non-standard residues; d marks the D form. Peptide text beside a SMILES is read from it. * marks the point of attachment. Phe(3,4-Cl2) = N[C@@H](Cc1ccc(Cl)c(Cl)c1)C(=O)O; 1Nal = N[C@@H](Cc1cccc2ccccc12)C(=O)O; Myristoyl = CCCCCCCCCCCCCC(=O)*; NMeA = CN[C@@H](C)C(=O)O; Nle = CCCC[C@H](N)C(=O)O

How the values were obtained:
rat PrRP receptor = target: T1, rat PrRP receptor (Rattus norvegicus, UniProt Q64121); assay: Competitive binding in RC-4B/C rat pituitary cells (125I-rat PrRP31); details: for % of PrRP31, RC-4B/C rat pituitary cells: affinity relative to PrRP31
T1 construct: host or cells: RC-4B/C rat pituitary cell line
T1 sequence (Q64121 1-370): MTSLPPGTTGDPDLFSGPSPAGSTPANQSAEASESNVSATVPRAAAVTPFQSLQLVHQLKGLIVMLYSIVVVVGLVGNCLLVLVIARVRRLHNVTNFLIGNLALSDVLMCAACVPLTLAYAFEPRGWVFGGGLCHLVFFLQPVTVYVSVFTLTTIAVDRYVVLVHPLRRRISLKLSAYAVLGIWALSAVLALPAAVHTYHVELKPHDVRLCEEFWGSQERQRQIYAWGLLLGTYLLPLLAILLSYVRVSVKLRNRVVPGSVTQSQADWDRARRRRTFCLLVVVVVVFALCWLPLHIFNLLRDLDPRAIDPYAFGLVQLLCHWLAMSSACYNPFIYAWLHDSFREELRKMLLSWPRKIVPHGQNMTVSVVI
Procedure: (§1) Competitive binding experiments were performed according to Motulsky and Neubig (Motulsky, A., et al., “Analyzing radioligand binding data,” Curr Protoc Neurosci, Chapter 7, Unit 7.5, 2002). Binding experiments were conducted with rat pituitary cells, and with Chinese Hamster Ovary (CHO) cells as follows:
The rat pituitary cell line RC-4B/C (ATCC, Manassas, USA) was grown on 24-well plates which had their bottom coated with polyethyleneimine. The cells were grown to the optimal density of 300-450 thousand cells per well. The following agents were used for the experiment: binding buffer (20 mmol·l^−1 HEPES, Ph 7.4; 118 mmol·l^−1 NaCl, 4.7 mmol·l^−1 KCl, 5 mmol·l^−1 MgCl2, 5.5 mmol·l^−1 glucose, 1 mg/ml BSA, 0.1 BPTI), unlabeled analogs of PrRP (i.e. the analog being tested) at a final concentration between 10^−11 to 10^−4 mol·l^−1, and rat ^125I-PrRP31 (labeled with radioactive Iodine-125) at a final concentration of […] (Maixnerová et al., 2011).
(§2) Plates were incubated for 60 minutes at room temperature. After incubation, the cells were solubilized in 0.1 mol/l solution of NaOH, and the radioactivity bound to the cells was counted using a γ-counter. The experiments were performed in duplicate, and repeated at least three times.
(§3) Graph Pad Prism Software (San Diego, Calif., USA) was used for evaluating the competitive binding experiments. Nonlinear regression was performed using a onsite binding model.

[1] = target: T2, human PrRP receptor GPR10 (Homo sapiens, UniProt P49683); assay: Competitive binding in CHO cells transfected with human GPR10 (human 125I-PrRP31); details: for % of PrRP31, GPR10 human receptor transfected in CHO cells: affinity relative to PrRP31
T2 construct: host or cells: CHO cells
T2 sequence (P49683 1-370): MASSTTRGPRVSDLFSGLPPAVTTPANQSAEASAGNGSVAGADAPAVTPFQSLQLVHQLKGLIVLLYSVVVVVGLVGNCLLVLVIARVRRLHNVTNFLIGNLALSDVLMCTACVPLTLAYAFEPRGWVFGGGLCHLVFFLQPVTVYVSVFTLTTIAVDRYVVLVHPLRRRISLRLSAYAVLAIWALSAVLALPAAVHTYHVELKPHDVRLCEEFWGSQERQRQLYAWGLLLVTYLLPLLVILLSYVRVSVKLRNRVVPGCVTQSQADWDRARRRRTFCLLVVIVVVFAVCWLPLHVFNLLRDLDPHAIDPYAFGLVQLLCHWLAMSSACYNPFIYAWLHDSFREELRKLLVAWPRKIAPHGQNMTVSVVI
Procedure: as §1
CHO cells transfected with human PrRP receptor GPR10 (Perkin Elmer, USA) were grown on 24-well plates coated with polyethyleneimine. The cells were grown to the optimal density of 40-80 thousand cells per well. The following agents were used for the experiment: binding buffer (25 mmol·l^−1 Tris, pH 7.4; 118 mmol·l^−1 NaCl, 10 mmol·l^−1 MgCl2, 10 mmol·l^−1 CaCl2, 5.5 mmol·l^−1 glucose, 0.5 mg/ml BSA), unlabeled analogs of PrRP (i.e. the analog being tested) at a final concentration between 10^−11 to 10^−4 mol·l^−1, and radiolabeled human ^125I-PrRP31 at a final concentration of 5×10^−11 mol·l^−1.
as §2, §3

% of PrRP31, RC-4B/C rat pituitary cells (rat PrRP receptor) [%]	% of PrRP31, GPR10 human receptor transfected in CHO cells [1] [%]	Ki (rat PrRP receptor; RC-4B/C cells, displacement of 125I-rat PrRP31, read-out: Ki, RC-4B/C rat pituitary cells ^25I-rat PrRP31) [nM]	Ki ([1]; CHO cells, human 125I-PrRP31, read-out: Ki, GPR10 human receptor transfected in CHO cells) [nM]	Structure (SMILES)
124	292			CCCCCCCCCCCCCC(=O)N[C@@H](CO)C(=O)N[C@@H](CCCNC(=N)N)C(=O)N[C@@H](C)C(=O)N[C@@H](Cc1c[nH]cn1)C(=O)N[C@@H](CCC(N)=O)C(=O)N[C@@H](Cc1c[nH]cn1)C(=O)N[C@@H](CO)C(=O)N[C@@H](CCCC)C(=O)N[C@@H](CCC(=O)O)C(=O)N[C@H](C(=O)N[C@@H](CCCNC(=N)N)C(=O)N[C@H](C(=O)N1CCC[C@H]1C(=O)N[C@@H](CC(=O)O)C(=O)N[C@H](C(=O)N[C@@H](CC(N)=O)C(=O)N1CCC[C@H]1C(=O)N[C@@H](C)C(=O)N[C@@H](Cc1c[nH]c2ccccc12)C(=O)N[C@@H](Cc1ccc(O)cc1)C(=O)N[C@H](C(=O)NCC(=O)N[C@@H](CCCNC(=N)N)C(=O)NCC(=O)N[C@H](C(=O)N[C@@H](CCCNC(=N)N)C(=O)N1CCC[C@H]1C(=O)N[C@H](C(=O)NCC(=O)N[C@@H](CCCNC(=N)N)C(=O)N[C@@H](Cc1cccc2ccccc12)C(N)=O)C(C)C)[C@@H](C)CC)[C@@H](C)O)[C@@H](C)CC)[C@@H](C)O)[C@@H](C)O [Analog 11] (Myristoyl-SRAHQHS[Nle]ETRTPDINPAWYTGRGIRPVGR[1Nal]-NH2)
152	193			CCCC[C@H](NC(=O)[C@H](CO)NC(=O)[C@H](Cc1c[nH]cn1)NC(=O)[C@H](CCC(N)=O)NC(=O)[C@H](Cc1c[nH]cn1)NC(=O)[C@H](C)NC(=O)[C@H](CCCNC(=N)N)NC(=O)[C@@H](N)CO)C(=O)N[C@@H](CCC(=O)O)C(=O)N[C@H](C(=O)N[C@@H](CCCNC(=N)N)C(=O)N[C@H](C(=O)N1CCC[C@H]1C(=O)N[C@@H](CC(=O)O)C(=O)N[C@H](C(=O)N[C@@H](CC(N)=O)C(=O)N1CCC[C@H]1C(=O)N[C@@H](C)C(=O)N[C@@H](Cc1c[nH]c2ccccc12)C(=O)N[C@@H](Cc1ccc(O)cc1)C(=O)N[C@H](C(=O)NCC(=O)N[C@@H](CCCNC(=N)N)C(=O)NCC(=O)N[C@H](C(=O)N[C@@H](CCCNC(=N)N)C(=O)N1CCC[C@H]1C(=O)N[C@H](C(=O)NCC(=O)N[C@@H](CCCNC(=N)N)C(=O)N[C@@H](Cc1ccc(O)cc1)C(N)=O)C(C)C)[C@@H](C)CC)[C@@H](C)O)[C@@H](C)CC)[C@@H](C)O)[C@@H](C)O [Analog 23] (H-SRAHQHS[Nle]ETRTPDINPAWYTGRGIRPVGRY-NH2)
128	171	3.84 ± 0.93	2.27 ± 0.48	CCCC[C@H](NC(=O)[C@H](CO)NC(=O)[C@H](Cc1c[nH]cn1)NC(=O)[C@H](CCC(N)=O)NC(=O)[C@H](Cc1c[nH]cn1)NC(=O)[C@H](C)NC(=O)[C@H](CCCNC(=N)N)NC(=O)[C@@H](N)CO)C(=O)N[C@@H](CCC(=O)O)C(=O)N[C@H](C(=O)N[C@@H](CCCNC(=N)N)C(=O)N[C@H](C(=O)N1CCC[C@H]1C(=O)N[C@@H](CC(=O)O)C(=O)N[C@H](C(=O)N[C@@H](CC(N)=O)C(=O)N1CCC[C@H]1C(=O)N[C@@H](C)C(=O)N[C@@H](Cc1c[nH]c2ccccc12)C(=O)N[C@@H](Cc1ccc(O)cc1)C(=O)N[C@H](C(=O)NCC(=O)N[C@@H](CCCNC(=N)N)C(=O)NCC(=O)N[C@H](C(=O)N[C@@H](CCCNC(=N)N)C(=O)N1CCC[C@H]1C(=O)N[C@H](C(=O)NCC(=O)N[C@@H](CCCNC(=N)N)C(=O)N[C@@H](Cc1ccc(Cl)c(Cl)c1)C(N)=O)C(C)C)[C@@H](C)CC)[C@@H](C)O)[C@@H](C)CC)[C@@H](C)O)[C@@H](C)O [Analog 13] (H-SRAHQHS[Nle]ETRTPDINPAWYTGRGIRPVGR[Phe(3,4-Cl2)]-NH2; N-terminus assumed)
1096	71			CCCCCCCCCCCCCC(=O)N[C@@H](CCCC)C(=O)N[C@@H](CCC(=O)O)C(=O)N[C@H](C(=O)N[C@@H](CCCNC(=N)N)C(=O)N[C@H](C(=O)N1CCC[C@H]1C(=O)N[C@@H](CC(=O)O)C(=O)N[C@H](C(=O)N[C@@H](CC(N)=O)C(=O)N1CCC[C@H]1C(=O)N[C@@H](C)C(=O)N[C@@H](Cc1c[nH]c2ccccc12)C(=O)N[C@@H](Cc1ccc(O)cc1)C(=O)N[C@H](C(=O)NCC(=O)N[C@@H](CCCNC(=N)N)C(=O)NCC(=O)N[C@H](C(=O)N[C@@H](CCCNC(=N)N)C(=O)N1CCC[C@H]1C(=O)N[C@H](C(=O)NCC(=O)N[C@@H](CCCNC(=N)N)C(=O)N[C@@H](Cc1ccccc1)C(N)=O)C(C)C)[C@@H](C)CC)[C@@H](C)O)[C@@H](C)CC)[C@@H](C)O)[C@@H](C)O [Analog 36] (Myristoyl-[Nle]ETRTPDINPAWYTGRGIRPVGRF-NH2)
1072	185			CCCCCCCCCCCCCC(=O)N[C@H](C(=O)N1CCC[C@H]1C(=O)N[C@@H](CC(=O)O)C(=O)N[C@H](C(=O)N[C@@H](CC(N)=O)C(=O)N1CCC[C@H]1C(=O)N[C@@H](C)C(=O)N[C@@H](Cc1c[nH]c2ccccc12)C(=O)N[C@@H](Cc1ccc(O)cc1)C(=O)N(C)[C@@H](C)C(=O)N[C@@H](CO)C(=O)N[C@@H](CCCNC(=N)N)C(=O)NCC(=O)N[C@H](C(=O)N[C@@H](CCCNC(=N)N)C(=O)N1CCC[C@H]1C(=O)N[C@H](C(=O)NCC(=O)N[C@@H](CCCNC(=N)N)C(=O)N[C@@H](Cc1ccccc1)C(N)=O)C(C)C)[C@@H](C)CC)[C@@H](C)CC)[C@@H](C)O [Analog 30] (Myristoyl-TPDINPAWY[NMeA]SRGIRPVGRF-NH2)
1332	56			CCCCCCCCCCCCCC(=O)N[C@@H](CCC(N)=O)C(=O)N[C@@H](Cc1c[nH]cn1)C(=O)N[C@@H](CO)C(=O)N[C@@H](CCSC)C(=O)N[C@@H](CCC(=O)O)C(=O)N[C@H](C(=O)N[C@@H](CCCNC(=N)N)C(=O)N[C@H](C(=O)N1CCC[C@H]1C(=O)N[C@@H](CC(=O)O)C(=O)N[C@H](C(=O)N[C@@H](CC(N)=O)C(=O)N1CCC[C@H]1C(=O)N[C@@H](C)C(=O)N[C@@H](Cc1c[nH]c2ccccc12)C(=O)N[C@@H](Cc1ccc(O)cc1)C(=O)N[C@H](C(=O)NCC(=O)N[C@@H](CCCNC(=N)N)C(=O)NCC(=O)N[C@H](C(=O)N[C@@H](CCCNC(=N)N)C(=O)N1CCC[C@H]1C(=O)N[C@H](C(=O)NCC(=O)N[C@@H](CCCNC(=N)N)C(=O)N[C@@H](Cc1ccccc1)C(N)=O)C(C)C)[C@@H](C)CC)[C@@H](C)O)[C@@H](C)CC)[C@@H](C)O)[C@@H](C)O [Analog 38] (Myristoyl-QHSMETRTPDINPAWYTGRGIRPVGRF-NH2)
10	45			CC[C@H](C)[C@H](NC(=O)CNC(=O)[C@H](CCCNC(=N)N)NC(=O)[C@H](CO)NC(=O)[C@H](C)N(C)C(=O)[C@H](Cc1ccc(O)cc1)NC(=O)[C@H](Cc1c[nH]c2ccccc12)NC(=O)[C@H](C)NC(=O)[C@@H]1CCCN1C(=O)[C@H](CC(N)=O)NC(=O)[C@@H](NC(=O)[C@H](CC(=O)O)NC(=O)[C@@H]1CCCN1C(=O)[C@@H](N)[C@@H](C)O)[C@@H](C)CC)C(=O)N[C@@H](CCCNC(=N)N)C(=O)N1CCC[C@H]1C(=O)N[C@H](C(=O)NCC(=O)N[C@@H](CCCNC(=N)N)C(=O)N[C@@H](Cc1ccccc1)C(N)=O)C(C)C [Analog 29] (H-TPDINPAWY[NMeA]SRGIRPVGRF-NH2)
